Experimental data: patent US9403823B2, “Protein kinase inhibitors” (ORIBASE PHARMA, priority 2012, dated 2016)

Legend:
BRAF = molecular target: T1, BRAF (Homo sapiens, UniProt P15056); assay: In vitro kinase assay (Z'-LYTE), BRAF; format: biochemical; details: read-out: % of inhibition of the kinase compared to the control
T1 construct: purchased Invitrogen
Summary of the method: (§1)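 FRET-based Z'-LYTE coupled-enzyme assay: kinase phosphorylates a dual-fluorophore peptide, unphosphorylated peptide is protease-cleaved, and donor/acceptor emission ratio after 400 nm excitation quantifies progress. Buffer 50 mM HEPES pH 7.5, 10 mM MgCl2, 1 mM EGTA, 0.01% BRIJ-35; 1% DMSO final. Single compound concentration: 100 nM, or 10 μM for ABL and ABL T315I.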

EGFR (ErbB1) = molecular target: T2, EGFR (ErbB1) (Homo sapiens, UniProt P00533); assay: In vitro kinase assay (Z'-LYTE), EGFR (ErbB1); format: biochemical; details: read-out: % of inhibition of the kinase compared to the control
T2 construct: purchased Invitrogen
T2 sequence (P00533 25-1210): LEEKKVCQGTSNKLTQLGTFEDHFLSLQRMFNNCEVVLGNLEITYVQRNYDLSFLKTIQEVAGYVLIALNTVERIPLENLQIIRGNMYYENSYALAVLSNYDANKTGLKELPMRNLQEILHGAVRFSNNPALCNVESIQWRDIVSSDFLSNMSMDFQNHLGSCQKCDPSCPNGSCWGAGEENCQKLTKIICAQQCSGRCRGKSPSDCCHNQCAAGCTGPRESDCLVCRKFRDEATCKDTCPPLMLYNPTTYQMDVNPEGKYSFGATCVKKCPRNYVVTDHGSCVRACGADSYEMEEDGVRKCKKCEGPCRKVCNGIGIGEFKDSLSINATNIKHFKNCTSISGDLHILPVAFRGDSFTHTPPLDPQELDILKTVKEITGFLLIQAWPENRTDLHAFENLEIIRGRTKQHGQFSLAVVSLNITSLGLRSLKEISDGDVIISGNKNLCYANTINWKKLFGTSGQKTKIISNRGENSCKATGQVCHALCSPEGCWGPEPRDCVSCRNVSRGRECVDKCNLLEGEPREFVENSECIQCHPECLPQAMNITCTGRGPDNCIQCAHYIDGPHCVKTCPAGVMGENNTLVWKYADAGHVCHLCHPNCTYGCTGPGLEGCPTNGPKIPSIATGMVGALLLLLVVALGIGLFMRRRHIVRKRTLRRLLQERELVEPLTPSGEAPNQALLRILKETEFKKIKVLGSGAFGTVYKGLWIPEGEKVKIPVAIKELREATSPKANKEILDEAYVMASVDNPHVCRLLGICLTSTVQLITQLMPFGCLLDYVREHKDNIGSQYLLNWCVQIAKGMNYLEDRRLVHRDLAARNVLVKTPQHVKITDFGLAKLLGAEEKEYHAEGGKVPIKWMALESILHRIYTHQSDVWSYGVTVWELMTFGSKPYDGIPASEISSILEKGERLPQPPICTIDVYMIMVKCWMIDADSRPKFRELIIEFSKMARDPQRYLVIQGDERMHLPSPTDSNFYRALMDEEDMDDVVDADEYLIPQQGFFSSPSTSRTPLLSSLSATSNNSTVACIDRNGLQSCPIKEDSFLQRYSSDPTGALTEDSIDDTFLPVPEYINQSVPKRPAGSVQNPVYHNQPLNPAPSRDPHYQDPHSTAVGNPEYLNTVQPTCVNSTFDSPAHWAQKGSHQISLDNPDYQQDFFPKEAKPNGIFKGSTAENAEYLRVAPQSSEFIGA
Summary of the method: as §1

EGFR (ErbB1) T790M L858R = molecular target: T3, EGFR (ErbB1) T790M L858R (Homo sapiens, UniProt P00533, L858R/T790M); assay: In vitro kinase assay (Z'-LYTE), EGFR (ErbB1) T790M L858R; format: biochemical; details: read-out: % of inhibition of the kinase compared to the control
T3 construct: purchased Invitrogen
Summary of the method: as §1

FGFR2 = molecular target: T4, FGFR2 (Homo sapiens, UniProt P21802); assay: In vitro kinase assay (Z'-LYTE), FGFR2; format: biochemical; details: read-out: % of inhibition of the kinase compared to the control
T4 construct: purchased Invitrogen
Summary of the method: as §1

KDR (VEGFR2) = molecular target: T5, KDR (VEGFR2) (Homo sapiens, UniProt P35968); assay: In vitro kinase assay (Z'-LYTE), KDR (VEGFR2); format: biochemical; details: read-out: % of inhibition of the kinase compared to the control
T5 construct: purchased Invitrogen
T5 sequence (P35968 20-1356): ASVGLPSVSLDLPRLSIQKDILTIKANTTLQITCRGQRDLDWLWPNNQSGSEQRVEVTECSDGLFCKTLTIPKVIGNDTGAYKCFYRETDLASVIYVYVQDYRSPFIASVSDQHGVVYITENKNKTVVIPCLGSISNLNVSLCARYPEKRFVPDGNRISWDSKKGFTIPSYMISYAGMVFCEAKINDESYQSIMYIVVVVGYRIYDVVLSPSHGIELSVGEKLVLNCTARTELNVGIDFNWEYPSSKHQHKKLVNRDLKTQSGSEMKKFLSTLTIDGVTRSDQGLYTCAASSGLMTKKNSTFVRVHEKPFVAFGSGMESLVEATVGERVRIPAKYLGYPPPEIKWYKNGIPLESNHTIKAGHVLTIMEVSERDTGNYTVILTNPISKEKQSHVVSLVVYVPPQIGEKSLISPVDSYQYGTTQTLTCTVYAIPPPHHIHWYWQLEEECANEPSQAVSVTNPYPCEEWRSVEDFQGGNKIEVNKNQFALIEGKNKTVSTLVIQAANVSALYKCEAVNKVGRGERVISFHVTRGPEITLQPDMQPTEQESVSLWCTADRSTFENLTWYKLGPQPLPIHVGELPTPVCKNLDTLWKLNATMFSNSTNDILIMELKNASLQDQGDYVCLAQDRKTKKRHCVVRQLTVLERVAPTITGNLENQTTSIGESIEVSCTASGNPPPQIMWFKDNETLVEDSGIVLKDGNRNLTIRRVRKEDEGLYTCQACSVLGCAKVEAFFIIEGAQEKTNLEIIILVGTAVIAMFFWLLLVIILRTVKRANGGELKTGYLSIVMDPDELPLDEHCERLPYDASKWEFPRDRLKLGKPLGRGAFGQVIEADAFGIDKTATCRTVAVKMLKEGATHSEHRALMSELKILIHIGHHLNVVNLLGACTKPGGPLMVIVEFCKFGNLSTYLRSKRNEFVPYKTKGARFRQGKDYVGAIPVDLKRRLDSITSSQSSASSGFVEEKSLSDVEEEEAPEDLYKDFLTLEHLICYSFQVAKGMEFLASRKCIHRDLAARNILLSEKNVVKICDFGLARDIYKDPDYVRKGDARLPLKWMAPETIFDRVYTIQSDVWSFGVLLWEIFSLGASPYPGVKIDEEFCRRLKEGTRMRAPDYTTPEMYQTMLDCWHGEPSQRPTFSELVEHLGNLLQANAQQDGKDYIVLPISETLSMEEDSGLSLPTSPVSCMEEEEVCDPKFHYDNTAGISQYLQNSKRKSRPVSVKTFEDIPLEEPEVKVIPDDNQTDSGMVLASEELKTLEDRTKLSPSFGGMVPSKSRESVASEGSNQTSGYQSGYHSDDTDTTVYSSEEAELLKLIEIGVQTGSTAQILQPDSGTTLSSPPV
Summary of the method: as §1

PDGFRA (PDGFR alpha) = molecular target: T6, PDGFRA (PDGFR alpha) (Homo sapiens, UniProt P16234); assay: In vitro kinase assay (Z'-LYTE), PDGFRA; format: biochemical; details: read-out: % of inhibition of the kinase compared to the control
T6 construct: purchased Invitrogen
Summary of the method: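 Inhibition read as emission ratio (donor/acceptor, 400 nm excitation) of a FRET-labelled peptide, phosphorylation protecting it from proteolytic cleavage. Compounds tested once at 100 nM for VEGFR1 and PDGFRA, at 10 μM for ABL and ABL T315I, 1% DMSO final. ATP at previously determined apparent Km.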

SRC = molecular target: T7, SRC (Homo sapiens, UniProt P12931); assay: In vitro kinase assay (Z'-LYTE), SRC; format: biochemical; details: read-out: % of inhibition of the kinase compared to the control
T7 construct: purchased Invitrogen
Summary of the method: as §1

ABL = molecular target: T8, ABL (Homo sapiens, UniProt P00519); assay: In vitro kinase assay (Z'-LYTE), ABL; format: biochemical; details: read-out: % of inhibition of the kinase compared to the control
T8 construct: purchased Invitrogen
Experimental: (§2) 1) In Vitro Kinase Assays (Table 10 to Table 21)
(§3) The inhibitory activity of the compounds on several kinases including BRAF, EGFR (ErbB1), EGFR (ErbB1) T790M L858R, FGFR2, KDR (VEGFR2), PDGFRA (PDGFR alpha), SRC and other was evaluated by Invitrogen using the Z′-LYTE® technology. Briefly, the Z′-LYTE® biochemical assay employs a fluorescence-based, coupled-enzyme format and is based on the differential sensitivity of phosphorylated and non-phosphorylated peptides to proteolytic cleavage. The peptide substrate is labeled with two fluorophores—one at each end—that make up a FRET pair. A ratiometric method, which calculates the ratio (the Emission Ratio) of donor emission to acceptor emission after excitation of the donor fluorophore at 400 nm, is used to quantitate reaction progress.
(§4) The compounds are screened in 1% DMSO (final) in the well. For 10 point titrations, 3-fold serial dilutions are conducted from the starting concentration. All Peptide/Kinase Mixtures are diluted to a 2× working concentration in the appropriate Kinase Buffer. All ATP Solutions are diluted to a 4× working concentration in Kinase Buffer (50 mM HEPES pH 7.5, 0.01% BRIJ-35, 10 mM MgCl2, 1 mM EGTA). ATP Km apparent is previously determined using a Z′-LYTE® assay.
(§5) Each compound was incubated at a concentration of 100 nM (excepted to test the activity against ABL and ABL T315I for which the compounds were incubated at a concentration of 10 μM) and the tables 10 to 21 summarize the results obtained showing the inhibitory power of a compound.

ABL T315I = molecular target: T9, ABL T315I (Homo sapiens, UniProt P00519, T315I); assay: In vitro kinase assay (Z'-LYTE), ABL T315I; format: biochemical; details: read-out: % of inhibition of the kinase compared to the control
T9 construct: purchased Invitrogen
Experimental: as §2, §3, §4, §5

FGFR1 = molecular target: T10, FGFR1 (Homo sapiens, UniProt P11362); assay: In vitro kinase assay (Z'-LYTE), FGFR1; format: biochemical; details: read-out: % of inhibition of the kinase compared to the control
T10 construct: purchased Invitrogen
T10 sequence (P11362 22-822): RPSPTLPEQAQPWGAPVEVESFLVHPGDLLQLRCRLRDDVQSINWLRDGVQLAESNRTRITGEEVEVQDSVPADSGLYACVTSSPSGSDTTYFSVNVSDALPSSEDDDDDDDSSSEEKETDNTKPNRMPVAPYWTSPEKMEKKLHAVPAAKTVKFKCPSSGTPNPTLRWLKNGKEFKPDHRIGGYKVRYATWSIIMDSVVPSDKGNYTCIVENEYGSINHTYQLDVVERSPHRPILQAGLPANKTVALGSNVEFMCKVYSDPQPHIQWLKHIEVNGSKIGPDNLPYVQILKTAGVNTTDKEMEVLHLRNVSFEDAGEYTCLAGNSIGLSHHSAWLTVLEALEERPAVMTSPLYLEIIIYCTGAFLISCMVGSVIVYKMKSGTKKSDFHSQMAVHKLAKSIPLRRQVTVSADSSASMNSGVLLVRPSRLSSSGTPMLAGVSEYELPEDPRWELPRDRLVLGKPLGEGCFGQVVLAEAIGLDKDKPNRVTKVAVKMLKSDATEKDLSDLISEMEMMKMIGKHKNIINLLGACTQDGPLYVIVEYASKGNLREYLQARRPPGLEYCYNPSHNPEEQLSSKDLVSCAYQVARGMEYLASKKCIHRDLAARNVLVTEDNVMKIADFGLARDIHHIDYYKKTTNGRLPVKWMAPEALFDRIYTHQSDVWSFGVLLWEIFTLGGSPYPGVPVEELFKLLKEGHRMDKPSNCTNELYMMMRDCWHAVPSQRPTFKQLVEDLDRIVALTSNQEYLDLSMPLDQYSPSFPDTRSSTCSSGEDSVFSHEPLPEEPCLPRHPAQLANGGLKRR
Experimental: as §2, §3
as §4, with “assay. […]” for “assay.”

VEGFR1 = molecular target: T11, VEGFR1 (Homo sapiens, UniProt P17948); assay: In vitro kinase assay (Z'-LYTE), VEGFR1; format: biochemical; details: read-out: % of inhibition of the kinase compared to the control
T11 construct: purchased Invitrogen
T11 sequence (P17948 27-1338): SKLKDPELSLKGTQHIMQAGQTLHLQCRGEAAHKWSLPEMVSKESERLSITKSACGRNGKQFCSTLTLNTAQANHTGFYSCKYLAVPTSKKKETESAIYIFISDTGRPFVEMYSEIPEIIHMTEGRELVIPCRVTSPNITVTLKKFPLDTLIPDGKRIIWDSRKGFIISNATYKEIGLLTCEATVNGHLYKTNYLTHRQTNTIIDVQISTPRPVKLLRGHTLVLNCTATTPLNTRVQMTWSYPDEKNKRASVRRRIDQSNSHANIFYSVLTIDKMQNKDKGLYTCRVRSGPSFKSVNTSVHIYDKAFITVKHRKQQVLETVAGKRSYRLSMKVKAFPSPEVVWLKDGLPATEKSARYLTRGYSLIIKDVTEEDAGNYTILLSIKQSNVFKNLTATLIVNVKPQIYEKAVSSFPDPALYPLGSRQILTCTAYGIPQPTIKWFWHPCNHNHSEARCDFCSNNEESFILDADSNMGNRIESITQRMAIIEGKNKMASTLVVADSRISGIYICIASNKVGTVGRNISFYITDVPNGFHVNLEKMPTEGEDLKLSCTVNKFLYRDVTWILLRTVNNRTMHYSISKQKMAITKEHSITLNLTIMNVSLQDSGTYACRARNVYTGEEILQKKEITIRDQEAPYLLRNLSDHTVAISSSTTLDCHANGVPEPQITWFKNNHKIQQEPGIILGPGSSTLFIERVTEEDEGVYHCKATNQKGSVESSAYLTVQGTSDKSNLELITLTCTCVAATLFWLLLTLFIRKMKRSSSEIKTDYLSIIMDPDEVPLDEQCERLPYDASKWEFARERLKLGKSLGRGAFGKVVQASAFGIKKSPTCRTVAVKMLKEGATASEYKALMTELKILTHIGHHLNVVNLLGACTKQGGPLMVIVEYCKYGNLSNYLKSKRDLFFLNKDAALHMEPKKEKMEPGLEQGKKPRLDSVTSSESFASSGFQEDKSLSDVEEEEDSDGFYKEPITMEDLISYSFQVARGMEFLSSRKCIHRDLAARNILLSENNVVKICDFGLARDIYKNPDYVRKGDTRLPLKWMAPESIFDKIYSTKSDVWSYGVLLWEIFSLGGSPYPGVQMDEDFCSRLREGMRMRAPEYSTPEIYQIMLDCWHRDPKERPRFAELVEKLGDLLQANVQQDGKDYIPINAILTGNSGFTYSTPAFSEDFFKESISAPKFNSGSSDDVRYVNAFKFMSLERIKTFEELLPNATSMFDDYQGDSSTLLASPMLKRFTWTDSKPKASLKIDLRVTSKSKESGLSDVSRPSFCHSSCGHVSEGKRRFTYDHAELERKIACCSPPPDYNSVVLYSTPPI
Experimental: as §2, §3
as §4, with “assay. […]” for “assay.”

PDGFRB = molecular target: T12, PDGFRB (Homo sapiens, UniProt P09619); assay: In vitro kinase assay (Z'-LYTE), PDGFRB; format: biochemical; details: read-out: % of inhibition of the kinase compared to the control
T12 construct: purchased Invitrogen
Experimental: as §2, §3
as §4, with “assay. […]” for “assay.”

A549 cell line = assay: In vitro cell proliferation assay (MTT), A549; format: cell-based; details: Homo sapiens; A549, 72 hr, MTT; read-out: EC50, anti-proliferative activity
Summary of the method: (§6)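 Cancer cell lines were seeded at 5×10^3 cells per well and HRMEC at 1×10^4 cells per well, then incubated in duplicate with escalating compound concentrations (10 nM to 3 μM) for 72 hr. Proliferation was read by MTT.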

HepG2 cell line = assay: In vitro cell proliferation assay (MTT), HepG2; format: cell-based; details: Homo sapiens; HepG2, 72 hr, MTT; read-out: EC50, anti-proliferative activity
Summary of the method: as §6

HT29 cell line = assay: In vitro cell proliferation assay (MTT), HT29; format: cell-based; details: Homo sapiens, HT-29; HT29, 72 hr, MTT; read-out: EC50, anti-proliferative activity
Summary of the method: as §6

BxPC-3 cell line = assay: In vitro cell proliferation assay (MTT), BxPC-3; format: cell-based; details: Homo sapiens; BxPC-3, 72 hr, MTT; read-out: EC50, anti-proliferative activity
Experimental: 2) In Vitro Cell Proliferation Assays (Table 22 to Table 35)
Cancer cell lines (5×10^3 cells per well) or HUVEC (1×10^4 cells per well) or HRMEC (1×10^4 cells per well) were distributed in 96-well plates and incubating in duplicate with escalating concentrations (10 nM to 3 μM) of compounds for 72 hr. Cell proliferation was measured using MTT (3[4,5-dimethylthiazol-2-yl]-2,5-diphenyltetrazolium bromide).

H1975 cell line = assay: In vitro cell proliferation assay (MTT), H1975; format: cell-based; details: Homo sapiens, NCI-H1975; H1975, 72 hr, MTT; read-out: EC50, anti-proliferative activity
Summary of the method: as §6

HUVEC = assay: In vitro cell proliferation assay (MTT), HUVEC; format: cell-based; details: Homo sapiens, 72 hr, MTT, read-out: EC50, anti-proliferative activity
Summary of the method: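 HUVEC cells were plated at 1×10^4 cells per well in 96-well plates and exposed in duplicate to increasing compound concentrations from 10 nM to 3 μM for 72 hr. Proliferation was then quantified with MTT (3[4,5-dimethylthiazol-2-yl]-2,5-diphenyltetrazolium bromide) to determine anti-proliferative activity.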

SMILES | inhibition at 0.1 µM (BRAF) [%] | inhibition at 0.1 µM (EGFR (ErbB1)) [%] | inhibition at 0.1 µM (EGFR (ErbB1) T790M L858R) [%] | inhibition at 0.1 µM (FGFR2) [%] | inhibition at 0.1 µM (KDR (VEGFR2)) [%] | inhibition at 0.1 µM (PDGFRA (PDGFR alpha)) [%] | inhibition at 0.1 µM (SRC) [%] | inhibition at 10 µM (ABL) [%] | inhibition at 10 µM (ABL T315I) [%] | inhibition at 0.1 µM (FGFR1) [%] | inhibition at 0.1 µM (VEGFR1) [%] | inhibition at 0.1 µM (PDGFRB) [%] | EC50 (A549 cell line) [nM] | EC50 (HepG2 cell line) [nM] | EC50 (HT29 cell line) [nM] | EC50 (BxPC-3 cell line) [nM] | EC50 (H1975 cell line) [nM] | EC50 (HUVEC) [nM]
Cc1ccc(NC(=O)c2ccc(CN3CCN(C)CC3)c(C(F)(F)F)c2)cc1CNc1cnc2[nH]c(C(=O)O)cc2c1 [OR0623, 5-{2-Methyl-5-[4-(4-methyl-piperazin-1-ylmethyl)-3-trifluoromethyl-benzoylamino]-benzylamino}-1H-pyrrolo[2,3-b]pyridine-2-carboxylic acid] | < 50 | ≥ 50 | ≥ 50 | ≥ 50 | ≥ 50 | ≥ 50 | ≥ 50 | ≥ 50 | ≥ 50 | ≥ 50 | ≥ 50 | ≥ 50 | ≥ 1000 | ≥ 1000 | ≥ 1000 | ≥ 1000 | ≥ 1000 | ≥ 1000
Cc1cn(-c2cc(C(=O)Nc3ccc(C)c(CNc4cnc5[nH]c(C(=O)O)cc5c4)c3)cc(C(F)(F)F)c2)cn1 [OR0653, 5-{2-Methyl-5-[3-(4-methyl-imidazol-1-yl)-5-trifluoromethyl-benzoylamino]-benzylamino}-1H-pyrrolo[2,3-b]pyridine-2-carboxylic acid] | < 50 | ≥ 50 | ≥ 50 | < 50 | ≥ 50 | ≥ 50 | ≥ 50 | ≥ 50 | < 50 | < 50 | ≥ 50 | < 50 | ≥ 1000 |  |  | ≥ 1000 |  | 
